Measured values from ChEMBL document CHEMBL1201862, “PubChem BioAssay data set” (2004).
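The compound was tested at five concentrations on cells cultured in 96-well plates, with a 48-hour exposure period. GI50 is the concentration that inhibits growth by half.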 The source made the active and inactive calls. Rule as the data show it: active = GI50 up to about 1.1 µM and inactive = higher.

Columns and labels:
Assay in all cases: growth of human tumour cells (NCI), 48 h
[1] = tested on: NCI/ADR-RES
[2] = tested on: HCC 2998
[3] = tested on: MOLT-4
[4] = tested on: K562
[5] = tested on: CAKI-1
[6] = tested on: BT-549
[7] = tested on: 786-0
[8] = tested on: MCF7
[9] = tested on: IGROV-1
[10] = tested on: OVCAR-3
[11] = tested on: SN12C
[12] = tested on: M14
[13] = tested on: SF-539
[14] = tested on: LOX IMVI
[15] = tested on: U-251
[16] = tested on: HL-60
[17] = tested on: A498
[18] = tested on: RXF 393
[19] = tested on: UO-31
[20] = tested on: TK-10

Measured: GI50

COC1CC(N)(c2ccccc2)C(O)C(C)O1 (centres undefined)
inactive: [1] > 100 µM | [2] > 100 µM | [3] > 100 µM | [4] > 100 µM | [5] > 100 µM | [6] > 100 µM | [7] > 100 µM | [8] > 100 µM | [9] > 100 µM | [10] > 100 µM | [11] > 100 µM | [12] > 100 µM | [13] > 100 µM | [14] > 100 µM | [15] > 100 µM | [16] > 100 µM | [17] > 100 µM | [18] > 100 µM | [19] > 100 µM

Clc1nss/c1=N/c1nonc1-c1ccccc1
inactive: [1] 24 µM | [2] > 100 µM | [3] 25.1 µM | [4] 23.2 µM | [5] 17.1 µM | [6] 29.6 µM | [7] 30.5 µM | [8] 22.7 µM | [9] 26.4 µM | [10] 39 µM | [11] 18 µM | [12] 16 µM | [13] 22.7 µM | [14] 27.3 µM | [15] 41.1 µM | [16] 3.62 µM | [17] 71.6 µM | [18] 29.2 µM | [19] 17.6 µM

CCOC(=O)C12CCC(=O)N1N(C)c1ncccc1N2 (centres undefined)
inactive: [1] > 100 µM | [2] 77.4 µM | [3] > 100 µM | [4] > 100 µM | [5] > 100 µM | [6] > 100 µM | [7] > 100 µM | [8] > 100 µM | [9] > 100 µM | [10] > 100 µM | [20] > 100 µM | [12] > 100 µM | [13] > 100 µM | [14] > 100 µM | [15] > 100 µM | [17] > 100 µM | [18] > 100 µM | [19] > 100 µM

O=c1c2c3c(sc2nc(S)n1-c1ccccc1)CCCc1ccc([N+](=O)[O-])cc1-3
inactive: [1] 25.8 µM | [2] 24.6 µM | [3] 21.3 µM | [4] 11.7 µM | [5] > 100 µM | [6] 24.8 µM | [7] 54 µM | [8] 36.6 µM | [9] 14.2 µM | [10] 32.1 µM | [11] 37.7 µM | [20] > 100 µM | [12] > 100 µM | [14] 19.3 µM | [15] 39.8 µM | [16] 17.6 µM | [17] 41 µM | [18] 16.9 µM | [19] 26.9 µM

Cc1cc(C)c(S(=O)(=O)N(CCCN)OCCON(CCCN)S(=O)(=O)c2c(C)cc(C)cc2C)c(C)c1
inactive: [1] 22.1 µM | [2] 1.9 µM | [3] 2.64 µM | [4] 2.96 µM | [5] 26.2 µM | [6] 7.78 µM | [7] 3.93 µM | [8] 2.59 µM | [9] 1.97 µM | [10] 1.79 µM | [11] 7.87 µM | [20] 8 µM | [12] 2.75 µM | [13] 2.49 µM | [14] 2.44 µM | [17] 19.5 µM | [18] 4.67 µM | [19] 23.3 µM

Cc1ccc(NC(=O)CSc2nc(C)nc3c2sc(=S)n3-c2ccccc2)cc1
inactive: [1] 4.7 µM | [2] > 10 µM | [3] > 10 µM | [4] > 10 µM | [5] > 10 µM | [6] 4.09 µM | [7] 2.37 µM | [8] > 10 µM | [9] > 10 µM | [10] 5.37 µM | [11] 6.49 µM | [20] > 10 µM | [12] 2.79 µM | [13] 3.01 µM | [14] > 10 µM | [15] 3.84 µM | [16] > 10 µM | [17] > 10 µM | [18] 1.79 µM

COc1ccc(C(OCC2OC(n3cc(C)c(=O)[nH]c3=O)CC2n2cc(Cn3cc(Cl)c(=O)[nH]c3=O)nn2)(c2ccccc2)c2ccccc2)cc1 (centres undefined)
inactive: [1] > 100 µM | [2] > 100 µM | [3] 4.7 µM | [5] > 100 µM | [6] 82.6 µM | [7] > 100 µM | [8] 21.8 µM | [9] 39.5 µM | [10] > 100 µM | [11] > 100 µM | [20] > 100 µM | [12] > 100 µM | [13] > 100 µM | [14] > 100 µM | [15] 24.8 µM | [16] 3 µM | [17] > 100 µM | [18] > 100 µM | [19] > 100 µM

S=c1nc(Nc2ccccc2)c2c3c(sc2[nH]1)CCCC3
inactive: [1] > 100 µM | [2] > 100 µM | [3] > 100 µM | [4] > 100 µM | [5] > 100 µM | [6] > 100 µM | [7] > 100 µM | [8] > 100 µM | [9] > 100 µM | [10] > 100 µM | [11] 56.4 µM | [20] > 100 µM | [14] > 100 µM | [15] > 100 µM | [16] > 100 µM | [17] > 100 µM | [18] > 100 µM | [19] > 100 µM
